# According to patent US20260158111A1, “USE OF TGF IN THE PREVENTION VIRUS INFECTION OF THE RESPIRATORY TRACT” (FrieslandCampina Nederland B.V., priority 2021, published 2026):
# Tested on: Detroit D562 cells
# Assay: Airway epithelial cells pretreated with component, then stimulated with viral infection proxy poly I:C; cytokine ELISA of supernatant
# Assay type: cell-based
# Conditions: Example 7; Galunisertib alone 100 nM
# Method: Detroit […] cells (ATCC-CCL138) were cultured in a T75 flask (Corning cat. No. 430641) in minimum essential medium (MEM, Invitrogen Catalog No. 21090-022) with 1× non-essential amino acids (Invitrogen cat. No. 11140-035), 10 mM sodium pyruvate (Invitrogen cat. No. 11360-039), 2 mM glutamax (Invitrogen cat. No. 35050-038), 1000 U/ml antibiotics penicillin, 1000 μg/ml […] and 10% serum (Hyclone, GE healthcare Life Sciences, lot. No. RB35936), henceforth called 10% complete medium with serum (CMS). Cells were trypsinized when confluency of 80% or greater was achieved, using 3 ml of Trypsin-EDTA (Invitrogen, cat. No. 25200-056) and resuspended into 12 ml of 10% CMS. Cells were counted and seeded at 6*10^4 cells/ml in three 24-well tissue culture treated plate (Corning cat. No. 3527) with 1 ml per well. These were cultured for one week till confluent. […] All the components were calibrated on protein concentration and added on cells at the calculated total protein concertation of 1 mg/ml on dry matter. […] ELISA kits from R&D Systems (Biotechne) were used to quantify cytokines IL-8/CXCL8 (DY208), IL-6 (DY206), TNF-α (DY210) and IFN-λ1/3 (DY1598B) according to the manufacturer's guidelines. Absorbance was measured at 450 nm and corrected for at 570 nm using the Biorad iMark plate reader & Imark software version 6.2. Cytokines were quantified before and after the addition of poly I:C.
smiles,measurement,value
Cc1cccc(-c2nn3c(c2-c2ccnc4ccc(C(N)=O)cc24)CCC3)n1 [Galunisertib],effect of Galunisertib alone on the cells,had no effect on the cells
